ChEMBL document CHEMBL3596139, “N-Arylalkylbenzo[d]thiazole-2-carboxamides as anti-mycobacterial agents: design, new methods of synthesis and biological evaluation” (Medchemcomm, 2014)
Converted amounts (≈) assume the structure as drawn.

Assays:
[1] = tested on: Mycobacterium tuberculosis; assay: Antimycobacterial activity against Mycobacterium tuberculosis H37Rv ATCC 27294 after 28 days by two-fold serial dilution method; assay type: functional; conditions: H37Rv ATCC 27294, 672 h
[2] = Cytotoxicity against HEK293T cells assessed as inhibition of cell viability at 50 ug/ml after 72 hrs by MTT assay relative to control; assay type: cell-based, HEK-293T; conditions: human, read-out: INH
[3] = Therapeutic index, ratio of compound cytotoxic activity for HEK293T cells to antimycobacterial activity against Mycobacterium tuberculosis H37Rv ATCC 27294; assay type: cell-based, HEK-293T; conditions: human, read-out: TI

O=C(NCc1ccccc1)c1nc2ccccc2s1
MIC99 [1]: 3.12 µg/mL (≈ 11.6 µM)
cytotoxicity at 72 h, 50 ug/ml [2]: 41.2%

O=C(NCc1ccc2c(c1)OCO2)c1nc2cc(Cl)ccc2s1
MIC99 [1]: 25 µg/mL (≈ 72.1 µM)

O=C(NCc1ccccc1F)c1nc2ccccc2s1
MIC99 [1]: 25 µg/mL (≈ 87.3 µM)

O=C(NCc1cccc(F)c1)c1nc2ccccc2s1
MIC99 [1]: 6.25 µg/mL (≈ 21.8 µM)
cytotoxicity at 72 h, 50 ug/ml [2]: 44.6%

O=C(NCc1ccc(F)cc1)c1nc2ccccc2s1
MIC99 [1]: 6.25 µg/mL (≈ 21.8 µM)
cytotoxicity at 72 h, 50 ug/ml [2]: 50.3%

O=C(NCc1ccc(F)cc1F)c1nc2ccccc2s1
MIC99 [1]: 25 µg/mL (≈ 82.2 µM)

O=C(NCc1cc(F)ccc1F)c1nc2ccccc2s1
MIC99 [1]: 6.25 µg/mL (≈ 20.5 µM)
cytotoxicity at 72 h, 50 ug/ml [2]: 52.1%

O=C(NCc1ccc(F)c(F)c1)c1nc2ccccc2s1
MIC99 [1]: 25 µg/mL (≈ 82.2 µM)

O=C(NCc1ccccc1Cl)c1nc2ccccc2s1
MIC99 [1]: 6.25 µg/mL (≈ 20.6 µM)
cytotoxicity at 72 h, 50 ug/ml [2]: 35.6%

O=C(NCc1cccc(Cl)c1)c1nc2ccccc2s1
MIC99 [1]: 50 µg/mL (≈ 165 µM)

O=C(NCc1ccc(Cl)cc1)c1nc2ccccc2s1
MIC99 [1]: 50 µg/mL (≈ 165 µM)

O=C(NCc1ccc(Cl)cc1Cl)c1nc2ccccc2s1
MIC99 [1]: 50 µg/mL (≈ 148 µM)

Cc1ccccc1CNC(=O)c1nc2ccccc2s1
MIC99 [1]: 12.5 µg/mL (≈ 44.3 µM)
cytotoxicity at 72 h, 50 ug/ml [2]: 42.6%

Cc1ccc(CNC(=O)c2nc3ccccc3s2)cc1
MIC99 [1]: 50 µg/mL (≈ 177 µM)

COc1ccc(CNC(=O)c2nc3ccccc3s2)cc1
MIC99 [1]: 25 µg/mL (≈ 83.8 µM)

COc1ccccc1CNC(=O)c1nc2ccccc2s1
MIC99 [1]: 50 µg/mL (≈ 168 µM)

COc1ccc(CNC(=O)c2nc3ccccc3s2)cc1OC
MIC99 [1]: 12.5 µg/mL (≈ 38.1 µM)
cytotoxicity at 72 h, 50 ug/ml [2]: 19.1%

COc1ccc(CNC(=O)c2nc3ccccc3s2)c(OC)c1
MIC99 [1]: 50 µg/mL (≈ 152 µM)

COc1ccc(CNC(=O)c2nc3ccccc3s2)cc1O
MIC99 [1]: 25 µg/mL (≈ 79.5 µM)

CC(C)(C)c1ccc(CNC(=O)c2nc3ccccc3s2)cc1
MIC99 [1]: 50 µg/mL (≈ 154 µM)

O=C(NCc1ccc(C(F)(F)F)cc1)c1nc2ccccc2s1
MIC99 [1]: 12.5 µg/mL (≈ 37.2 µM)
cytotoxicity at 72 h, 50 ug/ml [2]: 36.7%

N#Cc1ccc(CNC(=O)c2nc3ccccc3s2)cc1
MIC99 [1]: 12.5 µg/mL (≈ 42.6 µM)
cytotoxicity at 72 h, 50 ug/ml [2]: 36%

O=C(NCc1ccc([N+](=O)[O-])cc1)c1nc2ccccc2s1
MIC99 [1]: 12.5 µg/mL (≈ 39.9 µM)
cytotoxicity at 72 h, 50 ug/ml [2]: 38.1%

O=C(NCc1ccc2c(c1)OCO2)c1nc2ccccc2s1
MIC99 [1]: 6.25 µg/mL (≈ 20 µM)
cytotoxicity at 72 h, 50 ug/ml [2]: 16.1%

O=C(NCCc1ccccc1)c1nc2ccccc2s1
MIC99 [1]: 3.12 µg/mL (≈ 11.1 µM)
cytotoxicity at 72 h, 50 ug/ml [2]: 22%

Nc1ccc(CCNC(=O)c2nc3ccccc3s2)cc1
MIC99 [1]: 25 µg/mL (≈ 84.1 µM)

COc1ccc(CCNC(=O)c2nc3ccccc3s2)cc1OC
MIC99 [1]: 25 µg/mL (≈ 73 µM)

O=C(NCc1ccccc1)c1nc2cc(Cl)ccc2s1
MIC99 [1]: 6.25 µg/mL (≈ 20.6 µM)
cytotoxicity at 72 h, 50 ug/ml [2]: 40.1%

O=C(NCc1ccc(F)cc1)c1nc2cc(Cl)ccc2s1
MIC99 [1]: 25 µg/mL (≈ 77.9 µM)

O=C(NCc1cc(F)ccc1F)c1nc2cc(Cl)ccc2s1
selectivity ratio [3]: > 64
MIC99 [1]: 0.78 µg/mL (≈ 2.3 µM)
cytotoxicity at 72 h, 50 ug/ml [2]: 32.2%

O=C(NCc1ccccc1Cl)c1nc2cc(Cl)ccc2s1
MIC99 [1]: 12.5 µg/mL (≈ 37.1 µM)
cytotoxicity at 72 h, 50 ug/ml [2]: 36%

O=C(NCc1cccc(Cl)c1)c1nc2cc(Cl)ccc2s1
MIC99 [1]: 25 µg/mL (≈ 74.1 µM)

O=C(NCc1ccc(Cl)cc1)c1nc2cc(Cl)ccc2s1
MIC99 [1]: 25 µg/mL (≈ 74.1 µM)

COc1ccccc1CNC(=O)c1nc2cc(Cl)ccc2s1
MIC99 [1]: 12.5 µg/mL (≈ 37.6 µM)
cytotoxicity at 72 h, 50 ug/ml [2]: 38.9%

COc1ccc(CNC(=O)c2nc3cc(Cl)ccc3s2)cc1OC
MIC99 [1]: 6.25 µg/mL (≈ 17.2 µM)
cytotoxicity at 72 h, 50 ug/ml [2]: 36.1%

Nc1ccc(CCNC(=O)c2nc3cc(Cl)ccc3s2)cc1
MIC99 [1]: 1.56 µg/mL (≈ 4.7 µM)
cytotoxicity at 72 h, 50 ug/ml [2]: 25.9%

COc1ccc(CCNC(=O)c2nc3cc(Cl)ccc3s2)cc1OC
MIC99 [1]: 12.5 µg/mL (≈ 33.2 µM)
cytotoxicity at 72 h, 50 ug/ml [2]: 30.9%

O=C(NCc1ccccc1)c1nc2cc(C(F)(F)F)ccc2s1
MIC99 [1]: 6.25 µg/mL (≈ 18.6 µM)
cytotoxicity at 72 h, 50 ug/ml [2]: 40.1%

O=C(NCc1ccc(F)cc1)c1nc2cc(C(F)(F)F)ccc2s1
MIC99 [1]: 12.5 µg/mL (≈ 35.3 µM)
cytotoxicity at 72 h, 50 ug/ml [2]: 38.7%

Nc1ccc(CCNC(=O)c2nc3cc(C(F)(F)F)ccc3s2)cc1
MIC99 [1]: 50 µg/mL (≈ 137 µM)

COc1ccc(CCNC(=O)c2nc3cc(C(F)(F)F)ccc3s2)cc1OC
MIC99 [1]: 25 µg/mL (≈ 60.9 µM)

CC[C@@H](CO)NCCN[C@@H](CC)CO [ETHAMBUTOL]
MIC99 [1]: 1.56 µg/mL (≈ 7.64 µM)

NNC(=O)c1ccncc1 [ISONIAZID]
MIC99 [1]: 0.098 µg/mL (≈ 0.715 µM)

NC(=O)c1cnccn1 [PYRAZINAMIDE]
MIC99 [1]: 6.25 µg/mL (≈ 50.8 µM)

CO[C@H]1/C=C/O[C@@]2(C)Oc3c(C)c(O)c4c(O)c(c(/C=N/N5CCN(C)CC5)c(O)c4c3C2=O)NC(=O)/C(C)=C\C=C\[C@H](C)[C@H](O)[C@@H](C)[C@@H](O)[C@@H](C)[C@H](OC(C)=O)[C@@H]1C [RIFAMPIN]
MIC99 [1]: 0.197 µg/mL (≈ 0.239 µM)
